Here are results for 14 molecules from patent USRE49850E1, “N-(pyridin-2-yl)-4-(thiazol-5-yl)pyrimidin-2-amine derivatives as therapeutic compounds” (AUCENTRA THERAPEUTICS PTY LTD, priority 2015, dated 2024).

Like-named read-outs stand apart in the source and are kept apart here.

In one assay the target is T1, CDK6D3 (Homo sapiens, UniProt Q00534).
T1 construct: purchased Eurofins Pharma Discovery or Reaction Biology Corporation (service)
The experiment in a line: Kinase assay CDK6/D3 (radiometric or ADP Glo). The class given is biochemical. The following applies: apparent Ki calculated from Km (ATP) and IC50; read-out: CDK inhibition Ki CDK6D3. The procedure: (§1) Eurofins Pharma Discovery or Reaction Biology Corporation Kinase Profiler services were used to measure inhibition of CDKs and other kinases by radiometric assay. Inhibition of CDK4/D1, CDK6/D3 and CDK9/T1 were also determined in-house using ADP Glo Kinase assays (Promega Corporation, Madison, USA). Briefly, the kinase reaction for CDK4/D1 and CDK6/D3 was performed with kinase reaction buffer ([…] Tris base pH 7.5, 20 mM MgCl2, 0.4 mM DTT), 0.1 mg/ml BSA and RB-CTF substrate (retinoblastoma protein1 C-terminal fraction). For CDK9/CyclinT1, the kinase reaction was performed with standard assay buffer and Kinase Dilution Buffer and RBER-IRStide substrate. Serial dilutions of 1:3 were prepared for test compounds for 10 concentrations (from 10 μM to 0.5 nM). The kinase reactions were started by addition of ATP, incubated for 40 min at 37° C. and then stopped by adding 10 μL of ADP Glo reagent. After incubation at room temperature in the dark for 40 min, 20 μL of kinase detection reagent was added per well and incubated for 40 min. Luminescence was measured using an EnVision Multilabel plate reader (PerkinElmer, Buckinghamshire, UK). Positive and negative controls were perfonned in the presence and absence of CDK kinases, respectively. Half-maximal inhibition (IC50) values were calculated using a 4-parameter logistic non-linear regression model with Graphpad prism (Version 6.0). Apparent inhibition constants (Ki) values were calculated from Km (ATP) and IC50 values for the respective kinases.

For a further assay, the target named is CDK 2A (Homo sapiens, UniProt P24941). Briefly: Kinase assay CDK2A (radiometric profiling service). The class given is biochemical. The following applies: for Ki: apparent Ki calculated from Km (ATP) and IC50, read-out: CDK inhibition Ki CDK 2A; for remaining activity at 10 µM: compound at 10 μM, read-out: % remaining enzymatic activity at 10 μM CDK 2A. The protocol:
as §1

For a further assay, the target named is T2, CDK4D1 (Homo sapiens, UniProt P11802).
T2 construct: purchased Eurofins Pharma Discovery or Reaction Biology Corporation (service)
Briefly: Kinase assay CDK4/D1 (radiometric or ADP Glo). The class given is biochemical. Conditions: apparent Ki calculated from Km (ATP) and IC50; read-out: CDK inhibition Ki CDK4D1. The procedure: as §1

The target of the next assay is CDK1B (Homo sapiens, UniProt P06493). The experiment in a line: Kinase assay CDK1B (radiometric profiling service). The following applies: for Ki: apparent Ki calculated from Km (ATP) and IC50, read-out: CDK inhibition Ki CDK1B; for remaining activity at 10 µM: compound at 10 μM, read-out: % remaining enzymatic activity at 10 μM CDK1B. The class given is biochemical. The procedure: as §1

For a further assay, the system named is MV4-11. The experiment in a line: Cell viability assay (resazurin, leukemia cell line) MV4-11. The class given is cell-based, human. The following applies: read-out: Anti-proliferative activity GI50 MV4-11. An excerpt:
(§2) Compounds from Example 1 were subjected to a standard MTT (3-(4,5-dimethylthiazol-2-yl)-2,5-diphenyltetrazolium bromide) and resazurin assays on solid tumour cell lines and leukemia cell lines, respectively, as previously reported (Wang S et al., J Med Chem 47:1662-1675, 2004 and Diab S. et al. CheMedChem 9:962-972, 2014).

The target in the next assay is CDK7H (Homo sapiens, UniProt P50613). Briefly: Kinase assay CDK7H (radiometric profiling service). The class given is biochemical. The following applies: for Ki: apparent Ki calculated from Km (ATP) and IC50, read-out: CDK inhibition Ki CDK7H; for remaining activity at 10 µM: compound at 10 μM, read-out: % remaining enzymatic activity at 10 μM CDK7H. The protocol: as §1

The target of another assay is T3, CDK9T1 (Homo sapiens, UniProt P50750).
T3 construct: purchased Eurofins Pharma Discovery or Reaction Biology Corporation (service)
Briefly: Kinase assay CDK9/T1 (radiometric or ADP Glo). The class given is biochemical. The following applies: for Ki: apparent Ki calculated from Km (ATP) and IC50, read-out: CDK inhibition Ki CDK9T1; for remaining activity at 10 µM: compound at 10 μM, read-out: % remaining enzymatic activity at 10 μM CDK9T1. The protocol: as §1

The test system of a further assay is MDA-MB-453. The experiment in a line: Cell viability assay (MTT, solid tumour cell line) MDA-MB-453. The class given is cell-based, human. The following applies: read-out: Anti-proliferative activity GI50 MDA-MB-453.
Source text: as §2

T3 sequence (P50750 whole entry): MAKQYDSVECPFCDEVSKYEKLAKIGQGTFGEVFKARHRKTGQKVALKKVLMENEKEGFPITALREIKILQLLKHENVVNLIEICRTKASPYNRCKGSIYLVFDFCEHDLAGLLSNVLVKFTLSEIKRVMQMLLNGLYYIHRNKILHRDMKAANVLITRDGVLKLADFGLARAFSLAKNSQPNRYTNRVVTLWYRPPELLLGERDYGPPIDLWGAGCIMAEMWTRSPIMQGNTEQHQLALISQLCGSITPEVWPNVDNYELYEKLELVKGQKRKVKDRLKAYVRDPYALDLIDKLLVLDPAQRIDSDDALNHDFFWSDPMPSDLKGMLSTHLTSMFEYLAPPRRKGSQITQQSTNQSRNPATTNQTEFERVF
T3 sequence (O60563 whole entry partner): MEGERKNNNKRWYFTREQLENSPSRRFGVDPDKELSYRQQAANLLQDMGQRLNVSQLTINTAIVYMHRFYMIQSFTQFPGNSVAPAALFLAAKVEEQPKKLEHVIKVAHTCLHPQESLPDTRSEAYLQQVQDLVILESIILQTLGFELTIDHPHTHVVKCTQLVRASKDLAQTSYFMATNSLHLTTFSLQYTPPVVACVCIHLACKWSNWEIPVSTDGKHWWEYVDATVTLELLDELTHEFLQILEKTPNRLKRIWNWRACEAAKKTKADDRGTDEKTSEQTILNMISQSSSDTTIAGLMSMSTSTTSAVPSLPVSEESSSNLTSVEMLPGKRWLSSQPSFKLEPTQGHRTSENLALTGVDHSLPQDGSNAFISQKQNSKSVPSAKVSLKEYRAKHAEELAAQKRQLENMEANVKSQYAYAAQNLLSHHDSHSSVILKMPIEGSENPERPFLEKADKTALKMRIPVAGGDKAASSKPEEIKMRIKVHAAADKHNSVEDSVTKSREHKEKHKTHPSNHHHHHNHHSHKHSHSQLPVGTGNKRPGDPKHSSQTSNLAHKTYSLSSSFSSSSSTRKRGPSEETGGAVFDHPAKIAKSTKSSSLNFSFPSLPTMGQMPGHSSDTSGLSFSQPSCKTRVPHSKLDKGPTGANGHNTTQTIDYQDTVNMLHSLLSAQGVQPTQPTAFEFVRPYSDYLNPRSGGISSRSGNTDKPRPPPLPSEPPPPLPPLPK
T2 sequence (P11802 whole entry): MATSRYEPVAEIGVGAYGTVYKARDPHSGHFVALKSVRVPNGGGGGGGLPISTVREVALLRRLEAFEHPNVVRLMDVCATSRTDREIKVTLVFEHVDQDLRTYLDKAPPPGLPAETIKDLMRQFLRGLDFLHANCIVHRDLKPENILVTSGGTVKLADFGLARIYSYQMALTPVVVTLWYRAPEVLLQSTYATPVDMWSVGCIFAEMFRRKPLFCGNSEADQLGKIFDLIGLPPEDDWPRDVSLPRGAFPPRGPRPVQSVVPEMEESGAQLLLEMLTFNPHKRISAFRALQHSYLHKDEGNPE
T2 sequence (P24385 whole entry partner): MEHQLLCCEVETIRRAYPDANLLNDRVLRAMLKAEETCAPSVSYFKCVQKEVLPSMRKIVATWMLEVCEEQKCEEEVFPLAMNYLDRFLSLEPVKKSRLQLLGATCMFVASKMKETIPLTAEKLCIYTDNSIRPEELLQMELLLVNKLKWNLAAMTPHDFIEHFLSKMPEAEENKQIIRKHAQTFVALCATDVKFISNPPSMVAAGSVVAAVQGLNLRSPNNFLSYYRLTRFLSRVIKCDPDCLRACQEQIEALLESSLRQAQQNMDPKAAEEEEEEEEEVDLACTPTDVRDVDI
Chain of CDK7H (P50613 whole entry): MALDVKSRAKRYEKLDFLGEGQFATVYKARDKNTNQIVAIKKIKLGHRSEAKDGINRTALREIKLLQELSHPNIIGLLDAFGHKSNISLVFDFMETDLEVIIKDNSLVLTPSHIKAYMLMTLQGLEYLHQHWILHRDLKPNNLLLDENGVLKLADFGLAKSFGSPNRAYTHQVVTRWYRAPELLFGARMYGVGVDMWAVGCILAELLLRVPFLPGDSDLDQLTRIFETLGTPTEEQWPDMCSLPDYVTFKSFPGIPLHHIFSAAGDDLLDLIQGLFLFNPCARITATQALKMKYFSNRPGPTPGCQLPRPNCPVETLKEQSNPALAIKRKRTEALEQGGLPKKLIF
Chain of CDK7H (P51946 whole entry partner): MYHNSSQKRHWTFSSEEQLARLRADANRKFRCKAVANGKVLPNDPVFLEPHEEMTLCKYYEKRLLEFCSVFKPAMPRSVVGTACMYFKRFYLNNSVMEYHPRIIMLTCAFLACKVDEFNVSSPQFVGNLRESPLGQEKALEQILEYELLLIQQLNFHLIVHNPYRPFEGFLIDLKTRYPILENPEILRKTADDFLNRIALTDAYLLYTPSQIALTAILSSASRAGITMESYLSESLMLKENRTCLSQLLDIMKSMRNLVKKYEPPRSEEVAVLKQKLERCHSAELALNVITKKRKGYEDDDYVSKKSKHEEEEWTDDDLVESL
Chain of CDK7H (P51948 whole entry partner): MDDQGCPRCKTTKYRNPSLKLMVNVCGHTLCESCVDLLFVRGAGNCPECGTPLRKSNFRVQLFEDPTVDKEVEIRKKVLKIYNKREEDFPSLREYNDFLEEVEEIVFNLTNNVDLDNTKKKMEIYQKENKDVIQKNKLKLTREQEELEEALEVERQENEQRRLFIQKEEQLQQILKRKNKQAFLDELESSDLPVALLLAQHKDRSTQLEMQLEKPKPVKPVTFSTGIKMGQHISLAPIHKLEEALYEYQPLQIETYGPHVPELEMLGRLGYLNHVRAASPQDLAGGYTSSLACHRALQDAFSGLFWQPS
Chain of CDK1B (P06493 whole entry): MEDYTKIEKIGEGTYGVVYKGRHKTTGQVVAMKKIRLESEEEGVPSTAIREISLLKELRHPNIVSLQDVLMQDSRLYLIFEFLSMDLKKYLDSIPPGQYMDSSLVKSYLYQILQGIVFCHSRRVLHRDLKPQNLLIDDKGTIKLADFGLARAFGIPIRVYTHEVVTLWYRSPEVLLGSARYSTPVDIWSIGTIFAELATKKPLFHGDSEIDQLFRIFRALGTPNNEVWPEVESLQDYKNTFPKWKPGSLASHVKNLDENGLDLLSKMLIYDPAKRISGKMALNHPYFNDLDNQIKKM
Chain of CDK1B (P14635 whole entry partner): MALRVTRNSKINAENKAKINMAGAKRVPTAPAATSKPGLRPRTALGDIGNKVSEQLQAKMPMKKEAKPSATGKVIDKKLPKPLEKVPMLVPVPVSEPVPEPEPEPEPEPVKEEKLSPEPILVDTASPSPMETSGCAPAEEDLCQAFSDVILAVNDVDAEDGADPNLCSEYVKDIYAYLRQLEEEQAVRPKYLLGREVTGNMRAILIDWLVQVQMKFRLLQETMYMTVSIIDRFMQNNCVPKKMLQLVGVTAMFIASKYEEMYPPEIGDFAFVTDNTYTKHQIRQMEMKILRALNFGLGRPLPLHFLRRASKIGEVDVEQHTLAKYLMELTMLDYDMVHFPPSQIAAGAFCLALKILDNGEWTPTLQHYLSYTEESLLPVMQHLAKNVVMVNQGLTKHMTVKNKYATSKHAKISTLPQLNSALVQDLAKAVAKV
T1 sequence (Q00534 whole entry): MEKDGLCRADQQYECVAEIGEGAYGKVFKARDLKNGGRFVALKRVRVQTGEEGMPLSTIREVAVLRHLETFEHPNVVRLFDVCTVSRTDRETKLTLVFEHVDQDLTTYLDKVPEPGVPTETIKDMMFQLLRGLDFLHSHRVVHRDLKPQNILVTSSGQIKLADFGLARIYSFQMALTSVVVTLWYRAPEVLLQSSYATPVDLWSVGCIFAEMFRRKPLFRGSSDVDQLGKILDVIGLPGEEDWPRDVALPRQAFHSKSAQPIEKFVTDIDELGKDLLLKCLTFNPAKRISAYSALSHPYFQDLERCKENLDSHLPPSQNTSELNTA
T1 sequence (P30281 whole entry partner): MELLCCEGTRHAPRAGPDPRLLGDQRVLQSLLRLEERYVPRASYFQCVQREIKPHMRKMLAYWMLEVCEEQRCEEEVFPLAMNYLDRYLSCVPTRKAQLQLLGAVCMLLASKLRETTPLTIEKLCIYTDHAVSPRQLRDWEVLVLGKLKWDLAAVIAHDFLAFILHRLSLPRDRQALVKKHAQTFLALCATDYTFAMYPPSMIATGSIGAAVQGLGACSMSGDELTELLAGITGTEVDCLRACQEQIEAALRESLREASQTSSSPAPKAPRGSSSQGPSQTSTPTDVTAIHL

As to “5-(2-((5-(4-Ethylpiperazin-1-yl)pyridin-2-yl)amino)-5-fluoropyrimidin-4-yl)-N,4-dimethylthiazol-2-amine [Compound 32]”, the Ki at CDK6D3 is 20 nM; at CDK 2A, 665 nM; on CDK4D1, 5 nM; on CDK1B, above 5000 nM; at CDK7H, above 5000 nM; at CDK9T1, 2920 nM. The values for the GI50 in the assay with MV4-11 (72 h) and in the assay on MDA-MB-453 (72 h) were 65 ± 2 nM and 528 ± 46 nM, respectively.
With `CC(=O)N1CCN(c2ccc(Nc3nccc(-c4sc(C)nc4C)n3)nc2)CC1` [Compound 1, 1-(4-(6-((4-(2,4-dimethylthiazol-5-yl)pyrimidin-2-yl)amino)pyridin-3-yl)piperazin-1-yl)ethan-1-one], the Ki was 590 nM on CDK6D3; above 5000 nM at CDK 2A; 81 nM at CDK4D1; above 5000 nM at CDK1B; above 5000 nM at CDK7H; above 5000 nM on CDK9T1. Further, the GI50 (usually the concentration at which growth is held to half of that of the control) is 1100 ± 345 nM with MV4-11 (Homo sapiens, MV4-11, 72 h) and above 10000 nM with MDA-MB-453 (Homo sapiens, MDA-MB-453, 72 h).
On to `Cc1nc(C)c(-c2ccnc(Nc3ccc(N4CCNCC4)cn3)n2)s1` [Compound 2, 4-(2,4-dimethylthiazol-5-yl)-N-(5-(piperazin-1-yl)pyridin-2-yl)pyrimidin-2-amine], for which the Ki at CDK6D3 was 245 nM; on CDK 2A, above 5000 nM; at CDK4D1, 55 nM; on CDK1B it was above 5000 nM; at CDK7H, above 5000 nM; on CDK9T1 it was above 5000 nM. In addition, the GI50 in the assay with MV4-11 (Homo sapiens, MV4-11, 72 h) was 1021 ± 7 nM; in the assay on MDA-MB-453 (Homo sapiens, MDA-MB-453, 72 h), above 10000 nM.
Consider `Cc1nc(C)c(-c2ccnc(Nc3ccc(N4CCN(C)CC4)cn3)n2)s1` [Compound 3, 4-(2,4-dimethylthiazol-5-yl)-N-(5-(4-methylpiperazin-1-yl)pyridin-2-yl)pyrimidin-2-amine], for which the Ki on CDK6D3 was 170 nM; at CDK 2A, 1930 nM; at CDK4D1 it was 30 nM; on CDK1B, above 5000 nM; at CDK7H it was above 5000 nM; at CDK9T1, above 5000 nM. Further, the GI50 in the assay with MV4-11 (Homo sapiens, MV4-11, 72 h) worked out at 53 ± 3 nM; in the assay with MDA-MB-453 (Homo sapiens, MDA-MB-453, 72 h), 378 ± 29 nM.
For `CNc1nc(C)c(-c2ccnc(Nc3ccc(N4CCNCC4)cn3)n2)s1` [Compound 26, N,4-dimethyl-5-(2-((5-(piperazin-1-yl)pyridin-2-yl)amino)pyrimidin-4-yl)thiazol-2-amine], the Ki at CDK6D3 is 114 nM; at CDK 2A it was 889 nM; at CDK4D1 it was 6 nM; on CDK1B it was above 5000 nM; on CDK7H, above 5000 nM; on CDK9T1 it was 2850 nM. Moreover, the GI50 in the assay on MV4-11 (Homo sapiens, MV4-11, 72 h) is 259 ± 241 nM.
For the molecule `CNc1nc(C)c(-c2nc(Nc3ccc(N4CCNCC4)cn3)ncc2C#N)s1` [Compound 27, 4-(4-methyl-2-(methylamino)thiazol-5-yl)-2-((5-(piperazin-1-yl)pyridin-2-yl)amino)pyrimidine-5-carbonitrile], the Ki is 40 nM at CDK6D3 and 1 nM on CDK4D1. In addition, the remaining activity (commonly the activity still measured, relative to the control) at 10 µM at CDK 2A came out at 34%; at CDK1B, 56%; on CDK7H, 39%; on CDK9T1, 11%. The GI50 in the assay on MV4-11 (Homo sapiens, MV4-11, 72 h) was 14 ± 6 nM.
`CNc1nc(C)c(-c2nc(Nc3ccc(N4CCN(C)CC4)cn3)ncc2C#N)s1` [Compound 30, 4-(4-methyl-2-(methylamino)thiazol-5-yl)-2-((5-(4-methylpiperazin-1-yl)pyridin-2-yl)amino)pyrimidine-5-carbonitrile]: the Ki at CDK6D3 is 32 nM; on CDK4D1 it was 4 nM. For the same molecule, the remaining activity at 10 µM at CDK 2A was found to be 36%; at CDK1B it was 66%; at CDK7H, 43%; on CDK9T1 it was 9%. Further, the GI50 in the assay on MV4-11 (Homo sapiens, MV4-11, 72 h) came to 56 ± 4 nM.
As to `CNc1nc(C)c(-c2ccnc(Nc3ccc(N4CCOCC4)cn3)n2)s1` [Compound 36, N,4-dimethyl-5-(2-((5-morpholinopyridin-2-yl)amino)pyrimidin-4-yl)thiazol-2-amine], the Ki on CDK6D3 was 610 nM; at CDK 2A, 459 nM; on CDK4D1 it was 20 nM; on CDK1B it was above 5000 nM; at CDK7H, above 5000 nM; at CDK9T1, above 5000 nM. Moreover, the GI50 in the assay on MV4-11 (Homo sapiens, MV4-11, 72 h) is 643 ± 18 nM.
For `CNc1nc(C)c(-c2nc(Nc3ccc(N4CCOCC4)cn3)ncc2C#N)s1` [Compound 37, 4-(4-methyl-2-(methylamino)thiazol-5-yl)-2-((5-morpholinopyridin-2-yl)amino)pyrimidine-5-carbonitrile], the Ki is 64 nM on CDK6D3; 201 nM on CDK 2A; 4 nM on CDK4D1; above 5000 nM at CDK1B; above 5000 nM on CDK7H; above 5000 nM on CDK9T1. In addition, the GI50 with MV4-11 (Homo sapiens, MV4-11, 72 h) came out at 465 ± 129 nM.
Regarding `CNc1nc(C)c(-c2ccnc(Nc3ccc(N4CCN(Cc5ccccc5)CC4)cn3)n2)s1` [Compound 39, 5-(2-((5-(4-benzylpiperazin-1-yl)pyridin-2-yl)amino)pyrimidin-4-yl)-N,4-dimethylthiazol-2-amine], the Ki was 2710 nM at CDK6D3; above 5000 nM on CDK 2A; 169 nM at CDK4D1; above 5000 nM at CDK1B; above 5000 nM on CDK7H; above 5000 nM on CDK9T1. Further, the GI50 in the assay with MV4-11 (Homo sapiens, MV4-11, 72 h) stood at 45900 ± 2520 nM.
Consider `CNc1nc(C)c(-c2nc(Nc3ccc(N4CCN(Cc5ccccc5)CC4)cn3)ncc2C#N)s1` [Compound 40, 2-((5-(4-benzylpiperazin-1-yl)pyridin-2-yl)amino)-4-(4-methyl-2-(methylamino)thiazol-5-yl)pyrimidine-5-carbonitrile], for which the Ki at CDK6D3 was 36 nM; at CDK 2A it was above 5000 nM; on CDK4D1, 16 nM; on CDK1B, above 5000 nM; at CDK7H, above 5000 nM; on CDK9T1, 999 nM. The GI50 with MV4-11 (Homo sapiens, MV4-11, 72 h) was 84 ± 8 nM.
Regarding `CNc1nc(C)c(-c2ccnc(Nc3ccc(N4CCN(Cc5ccccc5)CC4)cc3)n2)s1` [Compound 41, 5-(2-((4-(4-benzylpiperazin-1-yl)phenyl)amino)pyrimidin-4-yl)-N,4-dimethylthiazol-2-amine], the Ki was 225 nM on CDK6D3; 37 nM on CDK 2A; 6 nM at CDK4D1; 133 nM on CDK1B; 67 nM on CDK7H; 117 nM at CDK9T1. In addition, the GI50 with MV4-11 (Homo sapiens, MV4-11, 72 h) came to 38 ± 6 nM.
Take `CNc1nc(C)c(-c2nc(Nc3ccc(N4CCN(Cc5ccccc5)CC4)cc3)ncc2C#N)s1` [Compound 42, 2-((4-(4-benzylpiperazin-1-yl)phenyl)amino)-4-(4-methyl-2-(methylamino)thiazol-5-yl)pyrimidine-5-carbonitrile]: the Ki on CDK6D3 was 36 nM; at CDK 2A, 17 nM; on CDK4D1 it was 1 nM; at CDK1B, 89 nM; at CDK7H, 101 nM; on CDK9T1, 34 nM. Also, the GI50 in the assay with MV4-11 (Homo sapiens, MV4-11, 72 h) is 37 ± 6 nM.
In the case of `CCN1CCN(Cc2ccc(Nc3ncc(F)c(-c4sc(NC5CCCC5)nc4C)n3)nc2)CC1` [Compound 84, N-cyclopentyl-5-(2-((5-((4-ethylpiperazin-1-yl)methyl)pyridin-2-yl)amino)-5-fluoropyrimidin-4-yl)-4-methylthiazol-2-amine], the Ki on CDK6D3 was 14 nM; at CDK4D1, 3 nM; on CDK1B, above 5000 nM; on CDK7H it was 630 nM; at CDK9T1 it was 3570 nM. Besides, the GI50 in the assay with MDA-MB-453 (Homo sapiens, MDA-MB-453, 72 h) came out at 622 ± 208 nM.
